Results on 20 molecules are retold here after patent US9056865B2, “Pyridine-2-derivatives as smoothened receptor modulators” (Pfizer Inc., priority 2010, dated 2015).

The pIC50 is the IC50 on a negative log10 scale, so that one unit is a factor of ten. High values mean a small IC50, low ones a large IC50.

The structures appear in SMILES notation. pIC50: −log10 of the molar value.

The target in one assay is human Smo (Homo sapiens (Human), UniProt Q99835). As to the kind of experiment: Smo radioligand competition binding assay. The following applies: for inhibition at 0.05 µM: 0.05 μM test compound, read-out: Smo % inh. @ 0.05 μM. As to the method: Smo Radioligand Competition Binding Assay
human Smo, sequence (Q99835 181-787): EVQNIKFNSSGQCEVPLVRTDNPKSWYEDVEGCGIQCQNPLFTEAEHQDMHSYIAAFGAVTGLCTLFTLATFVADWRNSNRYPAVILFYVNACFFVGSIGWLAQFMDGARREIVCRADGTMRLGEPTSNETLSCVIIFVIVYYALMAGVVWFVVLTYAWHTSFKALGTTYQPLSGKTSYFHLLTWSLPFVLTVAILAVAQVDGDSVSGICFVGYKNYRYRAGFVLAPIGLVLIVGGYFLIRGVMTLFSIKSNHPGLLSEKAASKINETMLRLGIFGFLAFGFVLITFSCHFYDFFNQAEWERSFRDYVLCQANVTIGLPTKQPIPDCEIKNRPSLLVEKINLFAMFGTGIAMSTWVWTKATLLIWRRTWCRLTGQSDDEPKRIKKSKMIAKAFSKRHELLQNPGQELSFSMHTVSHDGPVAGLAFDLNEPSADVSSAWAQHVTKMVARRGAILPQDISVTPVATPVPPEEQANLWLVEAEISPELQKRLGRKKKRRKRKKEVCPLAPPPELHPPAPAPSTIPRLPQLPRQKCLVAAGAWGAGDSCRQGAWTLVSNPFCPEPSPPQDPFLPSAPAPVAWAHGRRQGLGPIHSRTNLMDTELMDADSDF
Membranes were prepared from a stable cell line created in HEK293FlpIn-TetR cells (Invitrogen) using Flp recombinase-mediated insertion of the pSecTag-FRT/V5-His vector containing a cDNA encoding amino acids […] of human Smo fused to the murine Igk leader sequence to produce a cell surface expressed Smo 181-781 protein. Hygromycin-resistant clones were obtained and stained for LacZ expression (no expression indicates a correct knock-in of fusion cDNA). LacZ-negative cells were analyzed for binding tritiated Smo antagonists. For membrane preparation, the HEK293 cells expressing Smo 181-781 were grown to 90% confluence in nine to fifteen 245 mm×245 mm×22 mm dishes, washed with Dulbecco's PBS (15 mL per dish) and harvested via scraping in 10 mL of DPBS. The cells were collected and centrifuged at 1500 rpm (400×g) for 10 min at 4° C. The cell pellets were re-suspended in 40 mL of cold DPBS and washed by centrifugation at 2300 rpm (950×g max) for 10 minutes at 4° C. The supernatant was aspirated and the cell pellet was snap frozen in a methanol/dry ice bath and stored at −70° C. For membrane preparation, 15 mL of Membrane Preparation Buffer (50 mM Tris-HCl pH 7.5, 250 mM sucrose with Roche complete protease cocktail tablets) was added to the tube containing the cell pellet, then cells are rapidly thawed, and homogenized using an Ultra-Turrax T8 (IKA Labortechnik) set on “6” for 15 seconds for 5-6 times in icy water bath. This homogenate was diluted up to 50 mL using Membrane Preparation Buffer and centrifuged at 35,000 rpm in a Beckman Ti45 rotor (140,000×g) for 35 minutes at 4° C. followed by aspiration of the supernatant and re-suspension of the pellet in 5 mL of Assay Buffer (50 mM Tris-HCl pH 7.5, 100 mM NaCl, 25 mM MgCl2, 1 mM EDTA, and 0.1% protease free bovine serum albumin). The re-suspended pellet was then homogenized in a glass tissue grinder. The re-suspended membranes were aliquoted (0.5 mL aliquots), snap frozen and stored at −70° C. Total protein in the membrane preparation was determined using the Pierce BCA protein assay (Pierce Chemical).
For the binding competition assay, 100 μL of Assay Buffer was added to all the wells of a 96 well GF/B filter plate (Millipore MultiScreen-HTS-FB cat# MSFBN6B50) for 10 minutes to pre-wet the filter prior to evacuation of the buffer (8 inches Hg for 8 seconds). To the pre-wet wells is added: 20 μL of Assay Buffer, 10 μL diluted test agent, 20 μL of a tritiated Smo antagonist (15 nM stock solution), and 50 μL of membrane preparation (40 μg total protein per well). The plates are sealed and mixed at room temperature for 5 min, incubated at room temperature for 2 hours, then washed 5 times with 100 μL/each of wash buffer and vacuum dried for 8 seconds at 8 inches Hg. The plate is then dried for one hour in a 60° C. oven prior to the addition of 45 μL of Microscint 20 (Packard, #6013621) to each well and incubation at RT for 30 minutes to 1 hour. The plate is counted in a TopCount scintillation counter (Perkin Elmer).
Data analysis uses Excel for % Inhibition and Graphpad Prism for IC50 calculation. Total binding (TB, in the absence of inhibitors)=average of tritiated Smo antagonist 3 nM+Smo membrane (40 μg/wells (approx 5000-7000 CPM)). Non-specific binding (NSB)=average of tritiated Smo antagonist (3 nM)+cold Smo antagonist (30 μM)+Smo membrane (approx 600-1200 CPM). Specific binding (SB)=(total binding−non-specific binding). % Inhibition=[1−(compound Specific binding/control Specific binding)]×100%. IC50 is calculated by fitting the data to the four parameter sigmoidal dose-response curve (variable slope) Y=Bottom+(Top-Bottom)/(1+10^((LogEC50−X)*HillSlope)). X is the logarithm of the inhibitor concentration. Y is the response; Y starts at Bottom and goes to Top with a sigmoid shape.
(Displacement assays read how much labelled ligand stays bound in the presence of the test substance.)

The next assay relates to Gli-Luc/MEF cells. As to the kind of experiment: Gli-Luc/MEF assay. Format: cell-based, mouse. The following applies: Mus musculus, MEF; Shh-stimulated luciferase, 48 hours. The method, then: The Gli-Luc/MEF cells obtained from Gli-Luc transgenic mice contain a luciferase reporter gene under the control of the Gli response element. Luciferase activity stimulated with Sonic hedgehog ligand was inhibited by Smo inhibitors, and IC50 was subsequently calculated.
Plates were incubated at 37° C. and 5% CO2 overnight. On day two, cells were dosed with test compounds at a final concentration ranging from 3 μM to 50 μM at a 3-time series dilution. Immediately after dosing cells with compounds, recombinant mouse sonic hedgehog (Shh, R&D Systems 464-SH) was added to a final concentration of 2 μg/mL. The cells were incubated with compounds and Shh for 48 hours at 37° C. and 5% CO2. Luciferase assays were conducted on Day 4 using the Bright-Glo Luciferase assay system (Promega E2620) according to Promega's protocol. Briefly, Bright-Glo luciferase reagent was made up and 25 μL were added to each well of the 384-well plate containing media. Plates were kept at room temperature for 5 minutes, and then read on an Envision Luminescence plate reader (Perkin-Elmer). IC50 of the inhibition was calculated by using GraphPad Prism.

In the case of `CS(=O)(=O)NC1CCN(c2cc(-c3ncc(Cl)cc3F)c(Cl)cn2)CC1` [Example A-17, N-[1-(5,5′-dichloro-3-fluoro-2,4′-bipyridin-2′-yl)piperidin-4-yl]methanesulfonamide], on human Smo, the pIC50 is 6.29 and the inhibition at 0.05 µM turned out to be 63%. Besides, the negative logarithm of the IC50 (pIC50) with Gli-Luc/MEF cells is 7.22.
Consider `CS(=O)(=O)NC1CCN(c2cc(-c3ccc(F)cn3)c(Cl)cn2)CC1` [Example A-18, N-[1-(5′-chloro-5-fluoro-2,4′-bipyridin-2′-yl)piperidin-4-yl]methanesulfonamide], for which the results for the pIC50 at human Smo and in the assay with Gli-Luc/MEF cells were 6.46 and 7.09, respectively. In addition, the inhibition at 0.05 µM at human Smo was 58.9%.
The like results for `Cc1cccnc1-c1cc(N2CCN(c3ccc(C#N)cn3)CC2)ncc1Cl` [Example A-19, 6-[4-(5′-chloro-3-methyl-2,4′-bipyridin-2′-yl)piperazin-1-yl]nicatinonitrile] were, in that order, 7.43, 8.00 and 91.5%.
Consider `Cc1cccnc1-c1cc(N2CCC3(CC2)CN(C)C(=O)O3)ncc1Cl` [Example A-20, 8-(5′-chloro-3-methyl-2,4′-bipyridin-2′-yl)-3-methyl-1-oxa-3,8-diazaspiro[4.5]decan-2-one], for which the pIC50 was 6.39 at human Smo and 6.96 in the assay on Gli-Luc/MEF cells. Also, the inhibition at 0.05 µM at human Smo is 64.6%.
On to `Cc1cccnc1-c1cc(N2CCC3(CC2)CNC(=O)O3)ncc1Cl` [Example A-21, 8-(5′-chloro-3-methyl-2,4′-bipyridin-2′-yl)-1-oxa-3,8-diazaspiro[4.5]decan-2-one], for which, on human Smo, the pIC50 was 6.53 and the inhibition at 0.05 µM came out at 65.9%. Also, in the assay with Gli-Luc/MEF cells, the pIC50 was 6.94.
Consider `Cc1cccnc1-c1cc(N2CCN(S(C)(=O)=O)CC2)ncc1Cl` [Example A-22, 5′-chloro-3-methyl-2′-[4-(methylsulfonyl)piperazin-1-yl]-2,4′-bipyridine], for which the negative logarithm of the IC50 (pIC50) is 6.96 on human Smo and 7.38 in the assay on Gli-Luc/MEF cells. Further, the inhibition at 0.05 µM on human Smo is 81.5%.
The like results for `CC(=O)N1CCN(c2cc(-c3ncccc3C)c(Cl)cn2)CC1` [Example A-23, 2′-(4-acetylpiperazin-1-yl)-5′-chloro-3-methyl-2,4′-bipyridine] were, in that order, 6.38, 6.71 and 59.5%.
The like results for `COC(=O)N1CCN(c2cc(-c3ncccc3C)c(Cl)cn2)CC1` [Example A-24, methyl 4-(5′-chloro-3-methyl-2,4′-bipyridin-2′-yl)piperazine-1-carboxylate] were, in that order, 6.61, 6.90 and 69.3%.
Taken in the same sequence, the figures for `Cc1cccnc1-c1cc(N2CCN(C(=O)CO)CC2)ncc1Cl` [Example A-25, 2-[4-(5′-chloro-3-methyl-2,4′-bipyridin-2′-yl)piperazin-1-yl]-2-oxoethanol] were 6.62, 6.71 and 72.1%.
Consider `CC(=O)N1CCN(c2ncc(Cl)c(-c3ncccc3C)n2)CC1` [Example A-26, 2-(4-acetylpiperazin-1-yl)-5-chloro-4-(3-methylpyridin-2-yl)pyrimidine], for which, at human Smo, the pIC50 was 6.44 and the inhibition at 0.05 µM was 69.9%. The pIC50 in the assay on Gli-Luc/MEF cells was 6.72.
The like results for `COCCC(=O)NC1CCN(c2cc(-c3ncccc3C)c(Cl)cn2)CC1` [Example A-27, N-[1-(5′-chloro-3-methyl-2,4′-bipyridin-2′-yl)piperidin-4-yl]-3-methoxypropanamide] were, in that order, 6.97, 75.7% and 7.68.
Taken in the same sequence, the figures for `COCC(=O)N1CCN(c2cc(-c3ncccc3C)c(Cl)cn2)CC1` [Example A-28, 5′-chloro-2′-[4-(methoxyacetyl)piperazin-1-yl]-3-methyl-2,4′-bipyridine] were 6.67, 68.9% and 6.84.
The like results for `COCCC(=O)N1CCN(c2cc(-c3ncccc3C)c(Cl)cn2)CC1` [Example A-29, 5′-chloro-2′-[4-(3-methoxypropanoyl)piperazin-1-yl]-3-methyl-2,4′-bipyridine] were, in that order, 7.28, 89.3% and 7.37.
Regarding `Cc1cccnc1-c1nc(N2CCC(O)CC2)ncc1Cl` [Example A-30, 1-[5-chloro-4-(3-methylpyridin-2-yl)pyrimidin-2-yl]piperidin-4-ol], at human Smo, the pIC50 is 6.80 and the inhibition at 0.05 µM stood at 77.7%. In addition, the pIC50 in the assay with Gli-Luc/MEF cells is 6.61.
Taken in the same sequence, the figures for `Cc1cccnc1-c1cc(N2CCC(NC(=O)CN(C)C)CC2)ncc1Cl` [Example A-31, N-(1-(5′-chloro-3-methyl-[2,4′-bipyridin]-2′-yl)piperidin-4-yl)-2-(dimethylamino)acetamide] were 7.36, 89.2% and 7.68.
`COC(=O)NC1CCN(c2cc(-c3ncccc3C)c(Cl)cn2)CC1` [Example A-32, methyl [1-(5′-chloro-3-methyl-2,4′-bipyridin-2′-yl)piperidin-4-yl]carbamate]: at human Smo, the pIC50 was 7.11 and the inhibition at 0.05 µM stood at 86.6%. Further, the pIC50 with Gli-Luc/MEF cells is 7.56.
Taken in the same sequence, the figures for `Cc1cccnc1-c1nc(N2CCN(S(C)(=O)=O)CC2)ncc1Cl` [Example A-33, 5-chloro-4-(3-methylpyridin-2-yl)-2-[4-(methylsulfonyl)piperazin-1-yl]pyrimidine] were 6.76, 76.9% and 6.95.
Taken in the same sequence, the figures for `Cc1cccnc1-c1nc(N2CCC(NS(C)(=O)=O)CC2)ncc1Cl` [Example A-34, N-{1-[5-chloro-4-(3-methylpyridin-2-yl)pyrimidin-2-yl]piperidin-4-yl}methanesulfonamide] were 7.61, 94.8% and 7.68.
The like results for `CC(=O)NC1CCN(c2cc(-c3ncccc3C)c(Cl)cn2)CC1` [Example A-35, N-[1-(5′-chloro-3-methyl-2,4′-bipyridin-2′-yl)piperidin-4-yl]acetamide] were, in that order, 6.70, 70.6% and 7.17.
Turning to `COC(=O)N1CCN(c2ncc(Cl)c(-c3ncccc3C)n2)CC1` [Example A-36, methyl 4-[5-chloro-4-(3-methylpyridin-2-yl)pyrimidin-2-yl]piperazine-1-carboxylate], the negative-log IC50 (pIC50) at human Smo is 6.61; in the assay with Gli-Luc/MEF cells, 6.96. The inhibition at 0.05 µM on human Smo is 72.7%.
